The source of these data is patent US8652514B2, “Antimicrobial peptides” (priority 2009, dated 2014).

The test system of one experiment is E. coli. The experiment can be described thus: Permeabilization of bacterial membranes (SYTOX-Green). It counts as cell-based, Escherichia coli. To be noted: Gram-negative E. coli, pH 7.4, measured 120 minutes after addition. Here is the method:
(§1) FIG. 3 presents the permeabilization of Gram-positive bacteria (Bacillus megaterium) and Gram-negative bacteria (Escherichia coli) after intended use of the Alvinellacine and two other AMPs (Cecropin originated from pork and Magainin originated from amphibian). These experiences were carried out at pH 7.4. The permeabilization of bacteria was measured 10 minutes after addition of each AMP for B. megaterium, while the same measurement was done after 120 minutes after addition of each AMP for E. coli.
(§2) The minimal inhibitory concentration (MIC) was determined according to the method of Hancock (Hancock, R. E. W. Sep. 19, 1999, posting date. [Online.] Hancock Laboratory Methods. Department of Microbiology and Immunology, University of British Columbia, British Columbia, Canada. [Antibiotics and Antimicrobial Peptides: MIC Determination by Microtitre Broth Dilution Method, last accessed September 21st.]). […]
(§3) To investigate the mode of action of Alvinellacine, we used the fluorescent dye SYTOX-Green® and either the Gram-positive Bacillus megaterium or the Gram-negative E. coli (FIG. 3). […] We also measured the pore-forming activity of Alvinellacine to further characterize its mode of action by using a minimalistic membrane system. More precisely, we monitored the dissipation of a membrane potential induced in liposomes composed of azolectin, a crude phospho lipid mixture from soy bean. […]

The next experiment concerns Bacillus megaterium. Described as above. Format: cell-based. Conditions: Gram-positive Bacillus megaterium, pH 7.4, measured 10 minutes after addition. Here is the method: as §1, §2, §3
A short description of experiment [1]: Pore-forming activity: dissipation of a membrane potential in azolectin liposomes. The method, then: The minimal inhibitory concentration (MIC) was determined according to the method of Hancock (Hancock, R. E. W. Sep. 19, 1999, posting date. [Online.] Hancock Laboratory Methods. Department of Microbiology and Immunology, University of British Columbia, British Columbia, Canada. [Antibiotics and Antimicrobial Peptides: MIC Determination by Microtitre Broth Dilution Method, last accessed September 21st.]). Permeabilization of bacterial membranes and pore-forming activity were assayed as previously described (Herbst, R., Ott, C., Jacobs, T., Marti, T., Marciano-Cabral, F., Leippe, M. Pore-forming polypeptides of the pathogenic protozoon Naegleria fowleri. J. Biol. Chem. 2002. 277:22353-22360).
To investigate the mode of action of Alvinellacine, we used the fluorescent dye SYTOX-Green® and either the Gram-positive Bacillus megaterium or the Gram-negative E. coli (FIG. 3). […] We also measured the pore-forming activity of Alvinellacine to further characterize its mode of action by using a minimalistic membrane system. More precisely, we monitored the dissipation of a membrane potential induced in liposomes composed of azolectin, a crude phospho lipid mixture from soy bean. Pore-forming activity was detected at final concentrations up to 0.5 nM, whereas the positive control Alamethicine gave a signal at 0.1 nM.

Experiment [2] is described as follows: Permeabilization of liposomes filled with a fluorescent reagent. To be noted: positive control Alamethicin. The method, then:
FIG. 2 presents the ability of the Alvinellacine to create pores in liposomes, herein used to mimic bacterial membranes.
The mechanism of antibacterial activity was determined using liposomes filled with a fluorescent reagent. Liposomes consist of a bi-layer of phospholipids herein used to mimic the bacterial membrane. Permeabilization of the liposomes would result in a release of the internal compound, thus reacting with the medium and producing a fluorescent light that can be measured by spectrometry. The test is carried out with both negative and positive controls. Alamethicin, which is an antibiotic known to create pores in the bacterial membrane, is used as the positive control. The negative control is a solution of liposomes, intended for measurement of background noise (FIG. 2).

Where a SMILES comes first, the peptide text is derived from it. Bridges are numbered along the chain shown (N, C = ends). [ ]: non-standard residue; d: D form. Phe(ol) = N[C@H](CO)Cc1ccccc1; Aib = CC(C)(N)C(=O)O

With `CSCC[C@@H]1NC(=O)[C@@H]2CSSC[C@H](NC(=O)[C@H](CCCNC(=N)N)NC(=O)[C@H]([C@@H](C)O)NC(=O)[C@H](Cc3ccc(O)cc3)NC(=O)[C@@H](NC(=O)CNC(=O)[C@@H](N)CCCNC(=N)N)CSSC[C@@H](C(=O)N[C@H](C(=O)O)[C@@H](C)O)NC(=O)[C@H](C(C)C)NC(=O)[C@H](CCCNC(=N)N)NC1=O)C(=O)N[C@@H](Cc1c[nH]c3ccccc13)C(=O)N[C@@H](CCCCN)C(=O)N[C@@H](C(C)C)C(=O)NCC(=O)N[C@@H](CCCNC(=N)N)C(=O)N[C@@H](CC(N)=O)C(=O)NCC(=O)N[C@@H](CCCNC(=N)N)C(=O)N[C@@H](C(C)C)C(=O)N2` [Alvinellacine] (H-RGCYTRCWKVGRNGRVCMRVCT-OH; disulfide 3-21, 7-17 (inferred); N-terminus and C-terminus assumed), in the experiment on E. coli, the “membrane-permeabilizing activity compared with Cecropin P1 and Magainin II” value is “over one order of magnitude higher”. Besides, in the experiment on Bacillus megaterium, the “membrane-permeabilizing activity compared with the two positive controls (Cecropin P1, Magainin II)” value is listed as “lower activity”. Also, the “final concentration at which pore-forming activity was detected” value in experiment [1] is “up to 0.5 nM”. Moreover, in experiment [2], the “permeabilization of liposomes (mechanism of antibacterial activity)” value is recorded as “permealibilizes the bi-layer of phospholipids”.
With `CC(=O)NC(C)(C)C(=O)N1CCC[C@H]1C(=O)NC(C)(C)C(=O)N[C@@H](C)C(=O)NC(C)(C)C(=O)N[C@@H](C)C(=O)N[C@@H](CCC(N)=O)C(=O)NC(C)(C)C(=O)N[C@H](C(=O)NC(C)(C)C(=O)NCC(=O)N[C@@H](CC(C)C)C(=O)NC(C)(C)C(=O)N1CCC[C@H]1C(=O)N[C@H](C(=O)NC(C)(C)C(=O)NC(C)(C)C(=O)N[C@@H](CCC(=O)O)C(=O)N[C@@H](CCC(N)=O)C(=O)N[C@H](CO)Cc1ccccc1)C(C)C)C(C)C` [Alamethicine, Alamethicin, reference compound] (Ac-[Aib]P[Aib]A[Aib]AQ[Aib]V[Aib]GL[Aib]PV[Aib][Aib]EQ[Phe(ol)]), the “final concentration at which pore-forming activity was detected” value in experiment [1] came to 0.1 nM.
